Laboratory results taken from US20240398822A1, “METHODS AND COMPOSITIONS FOR TREATING AND MANAGING ALZHEIMER'S DISEASE” (Pharmatrophix, Inc., priority 2021, published 2024).
“Also recorded” adds a separate entry of the source. Read-outs that look alike come from different tables or passages of the source.

Legend:
[1] = Drug substance stability on storage and under accelerated/ICH stress conditions; type: physicochemical
Description: Preparation of the clinical dosage form consists of a dry fill of the drug substance into gelatin capsules with no excipients. For the Phase II study, capsules with the salt of Formula (II)(200 mg or 400 mg, free base weight) are machine-filled and packaged in blister strips with aluminum foil backing, which are stored in cardboard boxes. Matching placebo capsules are also available in the same packaging.

YKL-40 = assay: Phase IIa CSF glial biomarker YKL-40; type: in vivo, human
Description: CSF samples were obtained at screening Visit and final Visit via lumbar puncture to determine levels of tau, p-tau, Aβ40, Aβ42 and AChE activity as an initial set of CSF biomarkers. Aliquots of CSF were made available for emerging CSF biomarker methods such as measurement of additional biomarkers including neurofilaments light chain, neurogranin, SNAP-25, synaptotagmin, YKL-40, TREM2, tau oligomers and for measurement of drug level in selected patients based on the time period between last dose of drug and CSF sampling (FIG. 25 and FIG. 58).
Baseline CSF samples are obtained prior to administration via lumbar puncture. These samples are used to determine levels of tau, p-tau, Aβ40, Aβ42, AChE, neurofilament light chain, SNAP-25, synaptotagmin-1, neurogranin, sTREM, and YKL-40. Aliquots of CSF are also made available for emerging CSF biomarker methods such as measurement of tau oligomers and for measurement of drug level in selected patients based on time period between last dose of the salt of Formula (II) and CSF sampling. […] Many of these biomarkers can also be measured in blood or plasma. The change in values over the time period from pre-treatment to post-treatment are of particular importance. […] Absolute levels at single time points of neurofilament light chain, SNAP-25, synaptotagmin-1, neurogranin, sTREM, and YKL-40 in CSF or blood or plasma are of less value given differences in assay techniques and wide variation in absolute levels within normal subjects and within and across AD subjects. In contrast, absolute levels of Aβ42 and 40 at baseline are useful biomarkers indicating the presence of amyloid pathology as low levels of Aβ42 and 40 at a given time point are consistent with amyloid pathology.

[2] = Phase I (1b) systemic pharmacokinetics, 600 mg b.i.d. for 10 days; type: in vivo, human; details: for Cmax: human, plasma, po, 600 mg, 600 mg b.i.d. oral, 8 subjects, read-out: Cmax, systemic, arithmetic mean
Description: A phase 1b studied was conducted in 10 elderly normal subjects for the purpose of obtaining plasma and CSF coordinated drug levels and to further assess safety at a dose of 600 mg bid over a 10-day period. The study was double-blinded and placebo controlled with 8 subjects receiving drug.

[3] = tested on: patients with mild to moderate Alzheimer's disease; assay: Phase IIa safety and tolerability (adverse events, vital signs, ECG, MRI, laboratory); type: in vivo, human; details: for subjects who discontinued the phase 2a trial due to AEs or SAEs: of 16 subjects in total; for course of the increase in eosinophil level: also where treatment was continued; for overall safety and tolerability: phase IIa
Description: Safety monitoring included the full extent of phase 2 clinical and laboratory testing.
For all safety evaluations, only an overall ‘Safety’ population is described. This includes all patients who received at least one dose of medication and consider all patients according to the treatment they actually receive. Additionally, a PK population will be described for only patients receiving active study IMP.

[4] = tested on: amyloid based mice (L/S-APP) or tau based mice (PS19); details: published mouse studies, cited from earlier work
[5] = 200 mg bid (N = 78), 26 weeks, safety population
[6] = 200 mg bid (N = 78), 26 weeks, safety population, listed as LM11A
[7] = 200 mg bid (N = 78), 26 weeks, safety population, listed as LM11A-31
[8] = 400 mg bid (N = 83), 26 weeks, safety population
[9] = 400 mg bid (N = 83), 26 weeks, safety population, listed as LM11A
[10] = 400 mg bid (N = 83), 26 weeks, safety population, listed as LM11A-31

SMILES: CC[C@H](C)[C@H](N)C(=O)NCCN1CCOCC1 [LM11A-31-BHS, Tris[(2S,3S)-2-amino-3-methyl-N-(2-morpholinoethyl)pentanamide] tetra(monohydrogensulfate), monosulfate]
- impurities following storage at ICH stress conditions ([1]; GMP lots): no impurities above the LOD
- changes related to assay or impurities ([1]; Phase I drug substance lot, six months accelerated conditions, or 48 months at 25° C./60% RH): no significant changes
- stability under accelerated temperature and humidity conditions ([1]; drug substance): very good stability
- changes in the drug substance on storage ([1]; through 18 months at −20° C., 5° C., 25° C./60% RH or 40° C./75% RH, other than moisture content): no significant changes
- CSF YKL40 significant increase seen with placebo, drug dose analysis (YKL-40; 200 and 400 mg doses): no longer present at the 200 and 400 mg doses
- drug effect in slowing or inhibiting the pathological glial response (YKL-40), younger (<72 years) versus older (>=72 years) (YKL-40; annual percent change (APC), 6-month trial period): greater than that found in the older group
- CSF YKL-40 increase in the drug group (YKL-40; combined drug group, difference between placebo and drug groups p=0.03): This increase was not detected in the drug group
- linearity of pharmacokinetics ([2]; 600 mg BID during 10 days): linear
- Cmax ([2]; day 1): 1270 ng/mL
- Cmax ([2]; day 10): 885 ng/mL
- patients discontinued because of AEs ([3]; 200 mg bd, safety population): 2 patients
- patients discontinued because of serious AE ([3]; 200 mg bd, safety population): 0 patients
- AEs Leading To Discontinuation of Study IMP, % of patients [3, 5]: 6.4%
- AEs Leading To Discontinuation of Study IMP, freq (events) [3, 5]: 5
- AEs Leading To Discontinuation of Study IMP, n (patients) [3, 5]: 5
- Adverse events, Drug Relationship: Not Related, % of patients [3, 5]: 52.6%
- Adverse events, Drug Relationship: Not Related, freq (events) [3, 5]: 85
- Adverse events, Drug Relationship: Not Related, n (patients) [3, 5]: 41
- Adverse events, Drug Relationship: Related, freq (events) [3, 5]: 15
- Adverse events, Drug Relationship: Related, n (patients) [3, 5]: 12
- Adverse events, Intensity: Mild, freq (events) [3, 5]: 86
- Adverse events, Intensity: Mild, n (patients) [3, 5]: 40
- Adverse events, Intensity: Moderate, freq (events) [3, 5]: 12
- Adverse events, Intensity: Moderate, n (patients) [3, 5]: 11
- Adverse events, Intensity: Severe, freq (events) [3, 5]: 2
- Adverse events, Intensity: Severe, n (patients) [3, 5]: 2
- All Adverse Events, % of patients [3, 5]: 60.3%
- All Adverse Events, freq (events) [3, 5]: 109
- All Adverse Events, n (patients) [3, 5]: 47
- Serious AEs, % of patients [3, 5]: 2.6%
- Serious AEs, freq (events) [3, 5]: 2
- Serious AEs, n (patients) [3, 5]: 2
- Treatment Emergent Adverse Events (TEAEs), % of patients [3, 5]: 59.0%
- Treatment Emergent Adverse Events (TEAEs), freq (events) [3, 5]: 100
- Treatment Emergent Adverse Events (TEAEs), n (patients) [3, 5]: 46
- Adverse events, Intensity: Severe, % of patients ([3]; 200 mg bid (N = 78), 26 weeks, safety population, listed as LM1 1A-31): 6%
- Adverse events, Drug Relationship: Related, % of patients [3, 6]: 15.4%
- Adverse events, Intensity: Moderate, % of patients [3, 6]: 14.1%
- Adverse events, Intensity: Severe, % of patients [3, 6]: 2.6%
- Adverse events, Drug Relationship: Related, % of patients [3, 7]: 15%
- Adverse events, Intensity: Moderate, % of patients [3, 7]: 14%
- Adverse events, Intensity: Severe, % of patients [3, 7]: 3%
- Pre-Treatment Signs and Symptoms (PTSS), % of patients ([3]; 200 mg bid group (N = 78)): 10.3%
- Pre-Treatment Signs and Symptoms (PTSS), freq (events) ([3]; 200 mg bid group (N = 78)): 9
- Pre-Treatment Signs and Symptoms (PTSS), n (patients) ([3]; 200 mg bid group (N = 78)): 8
- share of the 10 severe TEAEs ([3]; 200 mg group): 20%
- subjects with GI side effects (diarrhea in most cases) ([3]; 200 mg group): approximately 8%
- subjects who discontinued the phase 2a trial due to AEs or SAEs ([3]; 200 mg group): 2 subjects
- patients discontinued because of AEs ([3]; 400 mg bd, safety population): 8 patients
- patients discontinued because of serious AE ([3]; 400 mg bd, safety population): 3 patients
- AEs Leading To Discontinuation of Study IMP, % of patients [3, 8]: 18.1%
- AEs Leading To Discontinuation of Study IMP, freq (events) [3, 8]: 20
- AEs Leading To Discontinuation of Study IMP, n (patients) [3, 8]: 15
- Adverse events, Drug Relationship: Not Related, % of patients [3, 8]: 57.8%
- Adverse events, Drug Relationship: Not Related, freq (events) [3, 8]: 150
- Adverse events, Drug Relationship: Not Related, n (patients) [3, 8]: 48
- Adverse events, Drug Relationship: Related, freq (events) [3, 8]: 23
- Adverse events, Drug Relationship: Related, n (patients) [3, 8]: 13
- Adverse events, Intensity: Mild, freq (events) [3, 8]: 119
- Adverse events, Intensity: Mild, n (patients) [3, 8]: 46
- Adverse events, Intensity: Moderate, freq (events) [3, 8]: 49
- Adverse events, Intensity: Moderate, n (patients) [3, 8]: 24
- Adverse events, Intensity: Severe, freq (events) [3, 8]: 5
- Adverse events, Intensity: Severe, n (patients) [3, 8]: 5
- All Adverse Events, % of patients [3, 8]: 66.3%
- All Adverse Events, freq (events) [3, 8]: 185
- All Adverse Events, n (patients) [3, 8]: 55
- Serious AEs, % of patients [3, 8]: 8.4%
- Serious AEs, freq (events) [3, 8]: 7
- Serious AEs, n (patients) [3, 8]: 7
- Treatment Emergent Adverse Events (TEAEs), % of patients [3, 8]: 65.1%
- Treatment Emergent Adverse Events (TEAEs), freq (events) [3, 8]: 173
- Treatment Emergent Adverse Events (TEAEs), n (patients) [3, 8]: 54
- Adverse events, Drug Relationship: Related, % of patients [3, 9]: 15.7%
- Adverse events, Intensity: Moderate, % of patients [3, 9]: 28.9%
- Adverse events, Intensity: Severe, % of patients [3, 9]: 6.0%
- Adverse events, Drug Relationship: Related, % of patients [3, 10]: 15%
- Adverse events, Intensity: Moderate, % of patients [3, 10]: 29%
- Pre-Treatment Signs and Symptoms (PTSS), % of patients ([3]; 400 mg bid group (N = 83)): 9.6%
- Pre-Treatment Signs and Symptoms (PTSS), freq (events) ([3]; 400 mg bid group (N = 83)): 12
- Pre-Treatment Signs and Symptoms (PTSS), n (patients) ([3]; 400 mg bid group (N = 83)): 8
- share of the 10 severe TEAEs ([3]; 400 mg group): 50%
- subjects with GI side effects (diarrhea in most cases) ([3]; 400 mg group): approximately 35%
- subjects who discontinued the phase 2a trial due to AEs or SAEs ([3]; 400 mg group): 11 subjects
- subjects receiving treatment with eosinophilia reported as an adverse event ([3]; 200 and 400 mg groups together): 10 subjects
- adverse events, drug groups compared with placebo ([3]; AEs otherwise similar between placebo and drug groups): higher rates in the drug group of nasopharyngitis, GI symptoms including diarrhea and transient, asymptomatic blood eosinophilia
- course of the increase in eosinophil level [3]: declined to normal levels
- course of the increase in eosinophil level ([3]; listed as salt of Formula (II)): transient
- life-threatening (Grade 4) adverse events ([3]; any group, 26 weeks): no life-threatening (Grade 4) adverse events
- heart rate and body temperature ([3]; during the visits): no clinically significant changes
- rate of several adverse events, 400 mg versus 200 mg ([3]; for some events statistically significant): higher for the 400 mg group
- MRI-based safety analysis ([3]; in vivo): no drug related adverse outcomes including hemorrhage or edema; also recorded: no events that raised any concern about the drug safety
- safety laboratory and urine analysis ([3]; in vivo): did not show any patterns of concern
- overall safety and tolerability ([3]; 26 weeks): no results raised any concerns about the safety
- overall safety and tolerability ([3]; 26 weeks, listed as salt of Formula (II)): no serious adverse events occurred that raised concerns about the tolerability of the drug
- 12-lead ECG ([3]; safety population): no relevant changes; also recorded: No significant changes
- blood pressure ([3]; safety population): no relevant changes; also recorded: No significant changes
- vital signs ([3]; safety population): no relevant changes; also recorded: No significant changes
- highest eosinophil level reached ([3]; treatment group): ≤ 5000 per μl
- subjects with eosinophil counts transiently above 500 per μl ([3]; verum group): 73 subjects
- subjects with increased eosinophil value considered clinically significant ([3]; week 4): 11 subjects
- effect on pathological tau, neurites, synapses and spines, astrocytes and microglia ([4]; GFAP and CD68 staining): inhibits levels of pathological tau, loss of neurites, loss of synapses and spines, activation of astrocytes (GFAP staining is less) and activation of microglia (CD68 staining is less)
- effect on synaptic function (LTP signal, EPSP slope in hippocampal slices) [4]: corrects synaptic function
